From patent US11549017B2, “NIR to SWIR fluorescent compounds for imaging and detection” (PERKINELMER HEALTH SCIENCES, INC., priority 2017, dated 2023)
Where “and” joins values, the source holds several entries; their conditions need not be identical. Equal entries are not always repeated.

Legend:
Format in all cases: physicochemical
[1] = Absorbance spectra / absorbance maximum in solvents (UV/vis spectrophotometer)
Description: Normalized spectra thus obtained are shown in FIG. 1 for each fluorochrome compound. […]

[2] = Fluorescence emission spectra with excitation at 980 nm (InGaAs NIR detector); settings: for fluorescence emission in water: aqueous solution
Description: The emission of D2 was measured in acetonitrile (ACN), ethanol (EtOH), methanol (MeOH). Spectra were recorded on a Quantamaster 8075-21 fluorescence spectrophotometer equipped with a liquid nitrogen cooled cooled DSS-IGA020L/CUS InGaAs NIR detector with excitation at 980 nm and emission recorded from 1000 nm to 1200 nm. The emission spectra as illustrated in FIG. 2 are at equal absorbance at 980 nm for each solvent.
The fluorescence spectra for an equal absorbance ˜0.13 solution of dyes A, B, C in dichloroethane were determined by exciting at 980 nm (Horiba (Quantamaster 8075-21), nitrogen cooled InGaAs detector) and compared them with a commercially available dye, IR-26 (obtained from Exciton) D as reference. Dye B is more than 2 fold brighter than the reference IR-26 in DCE as illustrated in FIG. 3.
The fluorescence of dyes A, B and C were also determined in other solvents viz., methanol, ethanol, DMSO and water. […]

[3] = Absorbance spectra / absorbance maximum in solvents (UV/vis spectrophotometer); remark: listed apart in the source
[4] = DCE, excitation 980 nm, equal absorbance ~0.13

## O=S(=O)([O-])CCC[N+]1=C(/C=C/C2=C(Cl)C(=C/C=c3/c4cccc5c(S(=O)(=O)O)ccc(c54)n3CCCS(=O)(=O)O)/C3CCC2C3)c2cccc3c(S(=O)(=O)O)ccc1c23 (centres unmarked) [D15]
[1]; methanol
  Abs λmax (absorbance max, UV-Vis λmax): ~1030 nm

## C[N+]1=C(/C=C/C=C/C=C/C=c2/c3cccc4c(S(=O)(=O)O)ccc(c43)n2CCCC(=O)O)c2cccc3c(S(=O)(=O)[O-])ccc1c23 [D20]
[1]; methanol
  Abs λmax (absorbance max, UV-Vis λmax): ~980 nm

## O=S(=O)(O)CCCn1/c(=C\C=C2/CCCC(/C=C/C3=[N+](CCCS(=O)(=O)O)c4ccc(S(=O)(=O)[O-])c5cccc3c45)=C2Cl)c2cccc3c(S(=O)(=O)O)ccc1c32 [D85]
[1]; methanol
  Abs λmax (absorbance max, UV-Vis λmax): ~1030 nm

## CCOC(=O)C1(C(=O)OCC)CC(/C=C/C2=[N+](CCCS(=O)(=O)O)c3ccc(S(=O)(=O)[O-])c4cccc2c34)=CC(=C/C=c2\c3cccc4c(S(=O)(=O)O)ccc(c43)n2CCCS(=O)(=O)O)/C1 [D75]
[1]; methanol
  Abs λmax (absorbance max, UV-Vis λmax): 990 nm

## O=S(=O)([O-])CCC[N+]1=C(/C=C/C2=C(Cl)C(=C/C=c3/c4cccc5cccc(c54)n3CCCS(=O)(=O)O)/C3CCC2C3)c2cccc3cccc1c23 (centres unmarked) [D72]
[1]; methanol
  Abs λmax (absorbance max, UV-Vis λmax): ~1030 nm
[1]; methanol, unit not given
  Abs λmax: 1026

## O=C(O)CCCn1/c(=C/C=C/C=C/C=C/C2=[N+](CCCC(=O)O)c3ccc(S(=O)(=O)[O-])c4cccc2c34)c2cccc3c(S(=O)(=O)O)ccc1c32 [D74]
[1]; methanol
  Abs λmax (absorbance max, UV-Vis λmax): 980 nm

## CCn1/c(=C/C=C2\CCCC(/C=C/C3=[N+](CC)c4cccc5c(S(=O)(=O)[O-])ccc3c45)=C2Cl)c2ccc(S(=O)(=O)O)c3cccc1c32 [A]
[2]; DCE
  % Fluorescence Relative to C: 90.11%
[2]; [4]
  Fluorescence Max: 1064 nm
[2]; DMSO
  % Fluorescence Relative to C: 29.46%
[2]; DMSO, excitation 980 nm
  Fluorescence Max: 1080 nm
[2]; EtOH
  % Fluorescence Relative to C: 92.92%
[2]; EtOH, excitation 980 nm
  Fluorescence Max: 1050 nm
[2]; MeOH
  % Fluorescence Relative to C: 86.00%
[2]; MeOH, excitation 980 nm
  Fluorescence Max: 1046 nm
[2]
  fluorescence emission in water: highly quenched

## O=C(O)CCCn1\c(=C/C=C/C=C/C=C/C2=[N+](CCCS(=O)(=O)O)c3ccc(S(=O)(=O)[O-])c4cccc2c34)c2cccc3c(S(=O)(=O)O)ccc1c32 [D13]
[1]; methanol
  Abs λmax (absorbance max, UV-Vis λmax): ~980 nm

## O=C(O)C[N+]1=C(/C=C/C=C/C=C/C=c2/c3cccc4c(S(=O)(=O)O)ccc(c43)n2CCCS(=O)(=O)O)c2cccc3c(S(=O)(=O)[O-])ccc1c23 [D18]
[1]; methanol
  Abs λmax (absorbance max, UV-Vis λmax): 970 nm and ~990 nm

## O=S(=O)([O-])CCCC[N+]1=C(/C=C/C2=C(Cl)C(=C/C=c3\c4cccc5cccc(c54)n3CCCCS(=O)(=O)O)/CCC2)c2cccc3cccc1c23 [C]
[2]; DCE
  % Fluorescence Relative to C: 1.00%
[2]; [4]
  Fluorescence Max: 1062 nm
[2]; DMSO
  % Fluorescence Relative to C: 1.00%
[2]; DMSO, excitation 980 nm
  Fluorescence Max: 1074 nm
[2]; EtOH
  % Fluorescence Relative to C: 1.00%
[2]; EtOH, excitation 980 nm
  Fluorescence Max: 1046 nm
[2]; MeOH
  % Fluorescence Relative to C: 1.00%
[2]; MeOH, excitation 980 nm
  Fluorescence Max: 1042 nm
[2]
  fluorescence emission in water: highly quenched

## O=C(O)CCCn1\c(=C/C=C/C=C/C=C/C2=[N+](CCCC(=O)O)c3ccc(S(=O)(=O)[O-])c4cccc2c34)c2cccc3c(S(=O)(=O)O)ccc1c32 [D17]
[1]; methanol
  Abs λmax (absorbance max, UV-Vis λmax): ~990 nm

## ClC1=C(/C=C/c2cc(-c3ccccc3)[s+]c3ccccc23)CCC/C1=C\C=C1/C=C(c2ccccc2)Sc2ccccc21.[O-][Cl+3]([O-])([O-])[O-] [D (IR-26), IR-26, reference compound]
[2]; DCE
  % Fluorescence Relative to C: 58.89%
[2]; [4]
  Fluorescence Max: 1118 nm

## Cn1/c(=C\C=C2/CCCC(/C=C/C3=[N+](C)c4ccc(S(=O)(=O)[O-])c5cccc3c45)=C2Cl)c2cccc3c(S(=O)(=O)O)ccc1c32 [D82]
[1]; methanol
  Abs λmax (absorbance max, UV-Vis λmax): ~1020 nm

## CCn1/c(=C\C=C2/CCCC(/C=C/C3=[N+](CC)c4ccc(S(=O)(=O)O)c5cccc3c45)=C2Cl)c2cccc3c(S(=O)(=O)O)ccc1c32 [compound 26]
[1]; in Methanol
  Absorption max: 1022 nm
[1]; in Water
  Absorption max: 829 nm
[3]; in Acetonitrile
  Absorption max: 1019 nm
[3]; in Chloroform
  Absorption max: 820 nm
[3]; in DMSO
  Absorption max: 1069 nm and 1065 nm
[3]; in Dichloromethane
  Absorption max: 810 nm
[3]; in Ethanol
  Absorption max: 1032 nm

## CCn1/c(=C/C=C2C(Cl)=C(/C=C/C3=[N+](CC)c4cccc5c(S(=O)(=O)[O-])ccc3c45)C3CCC/2C3)c2ccc(S(=O)(=O)O)c3cccc1c32 (centres unmarked) [B]
[2]; DCE
  % Fluorescence Relative to C: 130.82%
[2]; [4]
  Fluorescence Max: 1080 nm
[2]; DMSO
  % Fluorescence Relative to C: 80.53%
[2]; DMSO, excitation 980 nm
  Fluorescence Max: 1092 nm
[2]; EtOH
  % Fluorescence Relative to C: 76.31%
[2]; EtOH, excitation 980 nm
  Fluorescence Max: 1062 nm
[2]; MeOH
  % Fluorescence Relative to C: 94.80%
[2]; MeOH, excitation 980 nm
  Fluorescence Max: 1056 nm
[2]
  fluorescence emission in water: highly quenched
[2]; in DCE, excitation 980 nm, equal absorbance
  brightness relative to the reference IR-26: more than 2 fold

## O=C(O)Cn1\c(=C/C=C/C=C/C=C/C2=[N+](CC(=O)O)c3ccc(S(=O)(=O)[O-])c4cccc2c34)c2cccc3c(S(=O)(=O)O)ccc1c32 [D19]
[1]; methanol
  Abs λmax (absorbance max, UV-Vis λmax): 980 nm and ~1010 nm

## CC1(C)C(/C=C/C=C/C=C/C=c2/c3cccc4c(S(=O)(=O)O)ccc(c43)n2CCCC(=O)O)=[N+](CCCS(=O)(=O)[O-])c2ccc3c(S(=O)(=O)O)cc(S(=O)(=O)O)cc3c21 [D86]
[1]; methanol
  Abs λmax (absorbance max, UV-Vis λmax): ~890 nm

## CCn1\c(=C/C=C(/C=C/C2=[N+](CC)c3ccc(S(=O)(=O)O)c4cccc2c34)c2ccc(C(=O)O)cn2)c2cccc3c(S(=O)(=O)O)ccc1c32 [D71]
[1]; methanol
  Abs λmax (absorbance max, UV-Vis λmax): 851 nm

## Cn1/c(=C\C=C2C(Cl)=C(/C=C/C3=[N+](C)c4ccc(S(=O)(=O)[O-])c5cccc3c45)C3CCC\2C3)c2cccc3c(S(=O)(=O)O)ccc1c32 (centres unmarked) [D81]
[1]; methanol
  Abs λmax (absorbance max, UV-Vis λmax): ~1026 nm

## O=S(=O)([O-])CCC[N+]1=C(/C=C/C2=C(Cl)C(=C/C=c3/c4cccc5cccc(c54)n3CCCS(=O)(=O)O)/CCC2)c2cccc3cccc1c23 [D84]
[1]; methanol
  Abs λmax (absorbance max, UV-Vis λmax): ~1020 nm
